# Results taken from US12162840B2, “Herbicidal compositions” (SYNGENTA PARTICIPATIONS AG, priority 2018, dated 2024).
# Tested on: cool season plant species
# Assay: B2 Post-emergence efficacy Test 2, cool season plant species
# Format: in vivo
# Details: 15 days after application, 0=no damage, 100=total kill
# Procedure: Seeds of a variety of test species (see Table B1) were sown in standard soil in pots. After cultivation for 12 days (post-emergence) under controlled conditions in a glasshouse (at 24/18° C. or 20/16° C., at day/night; 16 hours light; 65% humidity), the plants were sprayed with an aqueous spray solution derived from the formulation of the technical active ingredient dissolved in IF50 (see Table B2 for composition) and adjuvant (Genapol XO80) was added to the spray solution at a rate of 0.2% v/v. [table] [table] After application, the test plants were grown in a glasshouse under controlled conditions (as above) and watered twice daily. Herbicidal activity was evaluated 15 days after application on a 0-100 scale. The results, where 0=no damage to test plant and 100=total kill of test plant are shown below in Tables 6 to 9.
smiles,measurement,setting,value
Cc1nn(C)c(=O)c(-c2c(F)ccc(Cl)c2CCc2ccc(F)cc2)c1O [Compound 1.048],Herbicidal activity (0-100 scale) ALOMY,15 g/Ha,20
same,Herbicidal activity (0-100 scale) ALOMY,30 g/Ha,30
same,Herbicidal activity (0-100 scale) ALOMY,60 g/Ha,70
same,Herbicidal activity (0-100 scale) ALOMY,125 g/Ha,80
same,Herbicidal activity (0-100 scale) ALOMY,250 g/Ha,80
same,Herbicidal activity (0-100 scale) ALOMY,500 g/Ha,90
same,Herbicidal activity (0-100 scale) AVEFA,15 g/Ha,10
same,Herbicidal activity (0-100 scale) AVEFA,30 g/Ha,30
same,Herbicidal activity (0-100 scale) AVEFA,60 g/Ha,60
same,Herbicidal activity (0-100 scale) AVEFA,125 g/Ha,80
same,Herbicidal activity (0-100 scale) AVEFA,250 g/Ha,90
same,Herbicidal activity (0-100 scale) AVEFA,500 g/Ha,90
same,Herbicidal activity (0-100 scale) BEAVA,15 g/Ha,70
same,Herbicidal activity (0-100 scale) BEAVA,30 g/Ha,80
same,Herbicidal activity (0-100 scale) BEAVA,60 g/Ha,80
same,Herbicidal activity (0-100 scale) BEAVA,125 g/Ha,90
same,Herbicidal activity (0-100 scale) BEAVA,250 g/Ha,90
same,Herbicidal activity (0-100 scale) BEAVA,500 g/Ha,90
same,Herbicidal activity (0-100 scale) BROTE,15 g/Ha,0
same,Herbicidal activity (0-100 scale) BROTE,30 g/Ha,10
same,Herbicidal activity (0-100 scale) BROTE,60 g/Ha,20
same,Herbicidal activity (0-100 scale) BROTE,125 g/Ha,50
same,Herbicidal activity (0-100 scale) BROTE,250 g/Ha,60
same,Herbicidal activity (0-100 scale) BROTE,500 g/Ha,70
same,Herbicidal activity (0-100 scale) BRSNN,15 g/Ha,90
same,Herbicidal activity (0-100 scale) BRSNN,30 g/Ha,90
same,Herbicidal activity (0-100 scale) BRSNN,60 g/Ha,90
same,Herbicidal activity (0-100 scale) BRSNN,125 g/Ha,90
same,Herbicidal activity (0-100 scale) BRSNN,250 g/Ha,90
same,Herbicidal activity (0-100 scale) BRSNN,500 g/Ha,90
same,Herbicidal activity (0-100 scale) CHEAL,125 g/Ha,70
same,Herbicidal activity (0-100 scale) CHEAL,250 g/Ha,90
same,Herbicidal activity (0-100 scale) CHEAL,500 g/Ha,100
same,Herbicidal activity (0-100 scale) GALAP,15 g/Ha,20
same,Herbicidal activity (0-100 scale) GALAP,30 g/Ha,30
same,Herbicidal activity (0-100 scale) GALAP,60 g/Ha,50
same,Herbicidal activity (0-100 scale) GALAP,125 g/Ha,60
same,Herbicidal activity (0-100 scale) GALAP,250 g/Ha,60
same,Herbicidal activity (0-100 scale) GALAP,500 g/Ha,80
same,Herbicidal activity (0-100 scale) HORVW,15 g/Ha,10
same,Herbicidal activity (0-100 scale) HORVW,30 g/Ha,10
same,Herbicidal activity (0-100 scale) HORVW,60 g/Ha,10
same,Herbicidal activity (0-100 scale) HORVW,125 g/Ha,40
same,Herbicidal activity (0-100 scale) HORVW,250 g/Ha,40
same,Herbicidal activity (0-100 scale) HORVW,500 g/Ha,80
same,Herbicidal activity (0-100 scale) KCHSC,15 g/Ha,0
same,Herbicidal activity (0-100 scale) KCHSC,30 g/Ha,0
same,Herbicidal activity (0-100 scale) KCHSC,60 g/Ha,10
same,Herbicidal activity (0-100 scale) KCHSC,125 g/Ha,20
same,Herbicidal activity (0-100 scale) KCHSC,250 g/Ha,50
same,Herbicidal activity (0-100 scale) KCHSC,500 g/Ha,80
same,Herbicidal activity (0-100 scale) LOLPE,15 g/Ha,20
same,Herbicidal activity (0-100 scale) LOLPE,30 g/Ha,40
same,Herbicidal activity (0-100 scale) LOLPE,60 g/Ha,90
same,Herbicidal activity (0-100 scale) LOLPE,125 g/Ha,90
same,Herbicidal activity (0-100 scale) LOLPE,250 g/Ha,90
same,Herbicidal activity (0-100 scale) LOLPE,500 g/Ha,90
same,Herbicidal activity (0-100 scale) POAAN,15 g/Ha,30
same,Herbicidal activity (0-100 scale) POAAN,30 g/Ha,30
same,Herbicidal activity (0-100 scale) POAAN,60 g/Ha,80
same,Herbicidal activity (0-100 scale) POAAN,125 g/Ha,80
same,Herbicidal activity (0-100 scale) POAAN,250 g/Ha,90
same,Herbicidal activity (0-100 scale) POAAN,500 g/Ha,90
same,Herbicidal activity (0-100 scale) POLCO,15 g/Ha,60
same,Herbicidal activity (0-100 scale) POLCO,30 g/Ha,70
same,Herbicidal activity (0-100 scale) POLCO,60 g/Ha,90
same,Herbicidal activity (0-100 scale) POLCO,125 g/Ha,90
same,Herbicidal activity (0-100 scale) POLCO,250 g/Ha,90
same,Herbicidal activity (0-100 scale) POLCO,500 g/Ha,90
same,Herbicidal activity (0-100 scale) SINAR,15 g/Ha,40
same,Herbicidal activity (0-100 scale) SINAR,30 g/Ha,80
same,Herbicidal activity (0-100 scale) SINAR,60 g/Ha,80
same,Herbicidal activity (0-100 scale) SINAR,125 g/Ha,90
same,Herbicidal activity (0-100 scale) SINAR,250 g/Ha,90
same,Herbicidal activity (0-100 scale) SINAR,500 g/Ha,90
same,Herbicidal activity (0-100 scale) STEME,15 g/Ha,90
same,Herbicidal activity (0-100 scale) STEME,30 g/Ha,90
same,Herbicidal activity (0-100 scale) STEME,60 g/Ha,90
same,Herbicidal activity (0-100 scale) STEME,125 g/Ha,100
same,Herbicidal activity (0-100 scale) STEME,250 g/Ha,100
same,Herbicidal activity (0-100 scale) STEME,500 g/Ha,100
same,Herbicidal activity (0-100 scale) TRZAW,15 g/Ha,0
same,Herbicidal activity (0-100 scale) TRZAW,30 g/Ha,10
same,Herbicidal activity (0-100 scale) TRZAW,60 g/Ha,20
same,Herbicidal activity (0-100 scale) TRZAW,125 g/Ha,20
same,Herbicidal activity (0-100 scale) TRZAW,250 g/Ha,50
same,Herbicidal activity (0-100 scale) TRZAW,500 g/Ha,80
same,Herbicidal activity (0-100 scale) VERPE,15 g/Ha,60
same,Herbicidal activity (0-100 scale) VERPE,30 g/Ha,80
same,Herbicidal activity (0-100 scale) VERPE,60 g/Ha,90
same,Herbicidal activity (0-100 scale) VERPE,125 g/Ha,80
same,Herbicidal activity (0-100 scale) VERPE,250 g/Ha,100
same,Herbicidal activity (0-100 scale) VERPE,500 g/Ha,100
